From ChEMBL document CHEMBL3217615, “Novel 3,5-bis(arylidiene)-4-piperidone based monocarbonyl analogs of curcumin: anticancer activity evaluation and mode of action study” (2014)

Columns and labels:
Assay type in all cases: functional
[1] = Growth inhibition of human OVCAR4 cells assessed as cell growth at 10^-6 M after 48 hrs by sulforhodamine B assay; settings: OVCAR-4, 48 h, read-out: Activity
[2] = Growth inhibition of human HCC2998 cells assessed as cell growth at 10^-6 M after 48 hrs by sulforhodamine B assay; settings: HCC 2998, 48 h, read-out: Activity
[3] = system: SK-MEL-28; experiment: Growth inhibition of human SK-MEL-28 cells assessed as cell growth at 10^-4 M after 48 hrs by sulforhodamine B assay; settings: SK-MEL-28, 48 h, read-out: Activity
[4] = system: SNB-75; experiment: Growth inhibition of human SNB75 cells assessed as cell growth at 10^-4 M after 48 hrs by sulforhodamine B assay; settings: SNB-75, 48 h, read-out: Activity
[5] = system: SW-620; experiment: Growth inhibition of human SW620 cells assessed as cell growth at 10^-4 M after 48 hrs by sulforhodamine B assay; settings: SW-620, 48 h, read-out: Activity
[6] = system: HT-29; experiment: Growth inhibition of human HT-29 cells assessed as cell growth at 10^-4 M after 48 hrs by sulforhodamine B assay; settings: HT-29, 48 h, read-out: Activity
[7] = system: SR; experiment: Growth inhibition of human SR cells assessed as cell growth at 10^-4 M after 48 hrs by sulforhodamine B assay; settings: read-out: Activity
[8] = Growth inhibition of human UACC62 cells assessed as cell growth at 10^-8 M after 48 hrs by sulforhodamine B assay; settings: UACC-62, 48 h; for growth at 0.01 µM: read-out: Activity; for TGI: read-out: pTGI (converted)
[9] = Growth inhibition of human UACC257 cells assessed as cell growth at 10^-8 M after 48 hrs by sulforhodamine B assay; settings: UACC-257, 48 h; for growth at 0.01 µM: read-out: Activity; for TGI: read-out: pTGI (converted)
[10] = system: SK-MEL-28; experiment: Growth inhibition of human SK-MEL-28 cells assessed as cell growth at 10^-8 M after 48 hrs by sulforhodamine B assay; settings: SK-MEL-28, 48 h; for growth at 0.01 µM: read-out: Activity; for CC50: read-out: pLC50 (the source's name) (converted); for TGI: read-out: pTGI (converted)
[11] = system: SK-MEL-2; experiment: Growth inhibition of human SK-MEL-2 cells assessed as cell growth at 10^-8 M after 48 hrs by sulforhodamine B assay; settings: SK-MEL-2, 48 h; for growth at 0.01 µM: read-out: Activity; for TGI: read-out: pTGI (converted)
[12] = system: HOP-62; experiment: Growth inhibition of human HOP62 cells assessed as cell growth at 10^-8 M after 48 hrs by sulforhodamine B assay; settings: HOP-62, 48 h; for growth at 0.01 µM: read-out: Activity; for TGI: read-out: pTGI (converted)
[13] = system: IGROV-1; experiment: Growth inhibition of human IGROV1 cells after 48 hrs by sulforhodamine B assay; settings: IGROV-1, 48 h; for CC50: read-out: LC50 (the source's name)
[14] = Growth inhibition of human UACC257 cells after 48 hrs by sulforhodamine B assay; settings: UACC-257, 48 h; for CC50: read-out: LC50 (the source's name)
[15] = system: SK-MEL-5; experiment: Growth inhibition of human SK-MEL-5 cells after 48 hrs by sulforhodamine B assay; settings: SK-MEL-5, 48 h; for CC50: read-out: LC50 (the source's name)
[16] = system: Malme-3M; experiment: Growth inhibition of human MALME-3M cells after 48 hrs by sulforhodamine B assay; settings: for CC50: read-out: LC50 (the source's name)
[17] = system: U-251; experiment: Growth inhibition of human U251 cells after 48 hrs by sulforhodamine B assay; settings: U-251, 48 h; for CC50: read-out: LC50 (the source's name)
[18] = system: SF-268; experiment: Growth inhibition of human SF268 cells after 48 hrs by sulforhodamine B assay; settings: SF-268, 48 h; for CC50: read-out: LC50 (the source's name)
[19] = Growth inhibition of human HCC2998 cells after 48 hrs by sulforhodamine B assay; settings: HCC 2998, 48 h; for CC50: read-out: LC50 (the source's name)
[20] = system: NCI-H226; experiment: Growth inhibition of human NCI-H226 cells after 48 hrs by sulforhodamine B assay; settings: NCI-H226, 48 h; for CC50: read-out: LC50 (the source's name)
[21] = Growth inhibition of human HOP92 cells after 48 hrs by sulforhodamine B assay; settings: HOP-92, 48 h; for CC50: read-out: LC50 (the source's name)
[22] = system: HL-60(TB); experiment: Growth inhibition of human HL-60(TB) cells after 48 hrs by sulforhodamine B assay; settings: HL-60, 48 h; for CC50: read-out: LC50 (the source's name)
[23] = system: CCRF-CEM; experiment: Growth inhibition of human CCRF-CEM cells after 48 hrs by sulforhodamine B assay; settings: for CC50: read-out: LC50 (the source's name)
[24] = system: MDA-MB-231; experiment: Growth inhibition of human MDA-MB-231 cells assessed as cell growth at 10^-4 M after 48 hrs by sulforhodamine B assay; settings: MDA-MB-231, 48 h, read-out: Activity
[25] = Growth inhibition of human UO31 cells assessed as cell growth at 10^-4 M after 48 hrs by sulforhodamine B assay; settings: UO-31, 48 h, read-out: Activity
[26] = system: SN12C; experiment: Growth inhibition of human SN12C cells assessed as cell growth at 10^-4 M after 48 hrs by sulforhodamine B assay; settings: read-out: Activity
[27] = system: MDA-MB-435; experiment: Growth inhibition of human MDA-MB-435 cells assessed as cell growth at 10^-7 M after 48 hrs by sulforhodamine B assay; settings: MDA-MB-435, 48 h, read-out: Activity
[28] = system: SNB-19; experiment: Growth inhibition of human SNB19 cells assessed as cell growth at 10^-7 M after 48 hrs by sulforhodamine B assay; settings: SNB-19, 48 h, read-out: Activity
[29] = system: COLO 205; experiment: Growth inhibition of human COLO205 cells assessed as cell growth at 10^-7 M after 48 hrs by sulforhodamine B assay; settings: COLO 205, 48 h, read-out: Activity
[30] = system: HL-60(TB); experiment: Growth inhibition of human HL-60(TB) cells assessed as cell growth at 10^-7 M after 48 hrs by sulforhodamine B assay; settings: HL-60, 48 h, read-out: Activity
[31] = system: ACHN; experiment: Growth inhibition of human ACHN cells assessed as cell growth at 10^-8 M after 48 hrs by sulforhodamine B assay; settings: for growth at 0.01 µM: read-out: Activity; for TGI: read-out: pTGI (converted)
[32] = Growth inhibition of human OVCAR5 cells assessed as cell growth at 10^-8 M after 48 hrs by sulforhodamine B assay; settings: OVCAR-5, 48 h; for growth at 0.01 µM: read-out: Activity; for TGI: read-out: pTGI (converted)

Compound: Cc1ccc(S(=O)(=O)N2C/C(=C\c3cc(F)cc(F)c3)C(=O)/C(=C/c3cc(F)cc(F)c3)C2)cc1
- growth at 1 µM [1]: 26%
- growth at 1 µM [2]: 35%
- growth at 100 µM [3]: -98%
- growth at 100 µM [4]: -86%
- growth at 100 µM [5]: -74%
- growth at 100 µM [6]: -75%
- growth at 100 µM [7]: -30%
- GI50 [8]: 0.214 µM
- LC50 [8]: 1.62 µM
- growth at 0.01 µM [8]: 94%
- TGI [8]: 0.513 µM
- GI50 [9]: 0.933 µM
- LC50 [9]: 8.51 µM
- growth at 0.01 µM [9]: 93%
- TGI [9]: 2.88 µM
- GI50 [10]: 0.468 µM
- growth at 0.01 µM [10]: 100%
- CC50 [10]: 4.79 µM
- TGI [10]: 1.78 µM
- GI50 [11]: 2 µM
- LC50 [11]: 14.8 µM
- growth at 0.01 µM [11]: 105%
- TGI [11]: 4.68 µM
- GI50 [12]: 2.04 µM
- LC50 (concentration killing 50% of cells) [12]: 11.7 µM
- growth at 0.01 µM [12]: 98%
- TGI [12]: 4.68 µM
- GI50 [13]: 0.436 µM
- TGI [13]: 1.55 µM
- CC50 [13]: 5.17 µM
- GI50 [14]: 0.939 µM
- TGI [14]: 2.9 µM
- CC50 [14]: 8.6 µM
- GI50 [15]: 0.286 µM
- TGI [15]: 1.08 µM
- CC50 [15]: 3.6 µM
- GI50 [16]: 0.274 µM
- TGI [16]: 0.742 µM
- CC50 [16]: 3.81 µM
- GI50 [17]: 0.188 µM
- TGI [17]: 0.53 µM
- CC50 [17]: 2.02 µM
- GI50 [18]: 0.431 µM
- TGI [18]: 2.15 µM
- CC50 [18]: 14.4 µM
- GI50 [19]: 0.602 µM
- TGI [19]: 1.91 µM
- CC50 [19]: 4.85 µM
- GI50 [20]: 8.62 µM
- TGI [20]: 39.6 µM
- CC50 [20]: > 100 µM
- GI50 [21]: 1.11 µM
- TGI [21]: 3.3 µM
- CC50 [21]: 9.78 µM
- GI50 [22]: 0.289 µM
- TGI [22]: 1.74 µM
- CC50 [22]: > 100 µM
- GI50 [23]: 0.0748 µM
- TGI [23]: 0.951 µM
- CC50 [23]: > 100 µM
- growth at 100 µM [24]: -82%
- growth at 100 µM [25]: -95%
- growth at 100 µM [26]: -96%
- growth at 0.1 µM [27]: 92%
- growth at 0.1 µM [28]: 82%
- growth at 0.1 µM [29]: 106%
- growth at 0.1 µM [30]: 89%
- GI50 [31]: 0.245 µM
- LC50 [31]: 2.4 µM
- growth at 0.01 µM [31]: 101%
- TGI [31]: 0.617 µM
- GI50 [32]: 1.02 µM
- LC50 [32]: 7.41 µM
- growth at 0.01 µM [32]: 95%
- TGI [32]: 2.75 µM

Compound: O=C1/C(=C/c2ccc(Cl)cc2Cl)CN(S(=O)(=O)c2ccccc2)C/C1=C\c1ccc(Cl)cc1Cl
- growth at 1 µM [1]: 10%
- growth at 1 µM [2]: 13%
- growth at 100 µM [3]: 42%
- growth at 100 µM [4]: -33%
- growth at 100 µM [5]: -27%
- growth at 100 µM [6]: -16%
- growth at 100 µM [7]: -21%
- GI50 [8]: 0.813 µM
- LC50 [8]: 5.75 µM
- growth at 0.01 µM [8]: 94%
- TGI [8]: 2.29 µM
- GI50 [9]: 4.07 µM
- LC50 [9]: > 100 µM
- growth at 0.01 µM [9]: 94%
- TGI [9]: > 100 µM
- GI50 [10]: 4.47 µM
- growth at 0.01 µM [10]: 97%
- CC50 [10]: > 100 µM
- TGI [10]: > 100 µM
- GI50 [11]: 6.03 µM
- LC50 [11]: > 100 µM
- growth at 0.01 µM [11]: 101%
- TGI [11]: > 100 µM
- GI50 [12]: 0.389 µM
- LC50 (concentration killing 50% of cells) [12]: > 100 µM
- growth at 0.01 µM [12]: 103%
- TGI [12]: > 100 µM
- GI50 [13]: 0.317 µM
- TGI [13]: 0.649 µM
- CC50 [13]: > 100 µM
- GI50 [14]: 4.08 µM
- TGI [14]: > 100 µM
- CC50 [14]: > 100 µM
- TGI [15]: > 100 µM
- CC50 [15]: > 100 µM
- GI50 [16]: 3.21 µM
- CC50 [16]: > 100 µM
- GI50 [17]: 0.173 µM
- TGI [17]: 0.373 µM
- CC50 [17]: 0.805 µM
- GI50 [18]: 0.447 µM
- TGI [18]: > 100 µM
- CC50 [18]: > 100 µM
- GI50 [19]: 0.383 µM
- TGI [19]: 1.36 µM
- CC50 [19]: 4.54 µM
- GI50 [20]: 1.04 µM
- TGI [20]: 2.87 µM
- CC50 [20]: 7.92 µM
- GI50 [21]: 1.7 µM
- TGI [21]: 5.55 µM
- CC50 [21]: > 100 µM
- GI50 [22]: 0.562 µM
- TGI [22]: 3.97 µM
- CC50 [22]: > 100 µM
- GI50 [23]: 0.286 µM
- TGI [23]: 0.994 µM
- CC50 [23]: > 100 µM
- growth at 100 µM [24]: -49%
- growth at 100 µM [25]: -60%
- growth at 100 µM [26]: -44%
- growth at 0.1 µM [27]: 88%
- growth at 0.1 µM [28]: 89%
- growth at 0.1 µM [29]: 107%
- growth at 0.1 µM [30]: 92%
- GI50 [31]: 0.871 µM
- LC50 [31]: > 100 µM
- growth at 0.01 µM [31]: 99%
- TGI [31]: 4.57 µM
- GI50 [32]: 2.14 µM
- LC50 [32]: > 100 µM
- growth at 0.01 µM [32]: 92%
- TGI [32]: 7.41 µM
